Reference: patent US9718819B2 (Merck Sharp & Dohme Corp., priority 2012, dated 2017)

What was measured:
[1] = Determination of PK parameters in dog after intravenous bolus; type: in vivo, Male beagle dogs; settings: male beagle dog, plasma, 50% DMSO in PEG400, read-out: Dog t1/2 (terminal half-life) (converted)
Protocol: Determination of PK Parameters Male beagle dogs (weight 9-13 kg) were fasted overnight and housed individually. Water was provided ad lib throughout the study. Food was allowed approximately 4 hr post dose. […] The formulations were given intravenous as a bolus injection into the cephalic vein. The vein used for the dosing will not be used for the blood sample collection for the first 4 hr post-dose). […] EDTA was used as anticoagulant and approximately 0.5 mL aliquots of blood samples were collected at each time point. […] Test compound concentration in dog plasma was determined using a LC/MS/MS method. Typically the LC/MS/MS system consisted of an ACQUITY UPLC system with autosampler system refrigerated at 4° C. during analysis, and an API 4000 mass spectrometer. […] The mobile phase consisting of a solvent A (0.1% formic acid in water/acetonitrile (95/5)) and solvent B (0.1% formic acid in acetonitrile/water (95/5)) was delivered at a flow rate of 600 μL/min. […] Mass spectrometric detection of the analytes is accomplished using either an ESI or APCI interface operated in the positive or negative ionization mode. Analyte response is measured by multiple reaction monitoring (MRM) of transitions unique to each compound […]

[2] = molecular target: HIV-1 RT wild-type enzyme (Human immunodeficiency virus type 1 group M subtype B (isolate HXB2) (HIV-1), UniProt P04585); assay: HIV-1 reverse transcriptase inhibitory activity (RT polymerase assay); type: biochemical; settings: HIV-1 RT wild-type enzyme 83 pM; RNA-dependent DNA polymerase activity; read-out: IC50
Procedure, shortened: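 Biotinylated DNA primer annealed to HCV-derived RNA template (16.6 nM final hybrid), with 2 μM dATP/dGTP/dCTP and 66.6 nM Ru-dUTP, after 30 min compound–enzyme preincubation at room temperature; polymerization 90 min at 37 °C, EDTA quench. Product captured on avidin plates, electrochemiluminescence read; IC50 by four-parameter logistic fit versus DMSO and 1 μM efavirenz controls.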

Row | Compound | half-life [1] [h] | IC50 [2] [nM]
1 | N#Cc1cc(Cl)cc(Oc2c(C(F)(F)F)ncn(Cc3cc(C(F)(F)F)c(=O)[nH]n3)c2=O)c1 [Example 6, 3-chloro-5-((6-oxo-1-((6-oxo-5-(trifluoromethyl)-1,6-dihydropyridazin-3-yl)methyl)-4-(trifluoromethyl)-1,6-dihydropyrimidin-5-yl)oxy)benzonitrile] | 72 | 8
2 | N#Cc1cc(Cl)cc(Oc2c(C(F)(F)F)ncn(Cc3ccc(=O)[nH]n3)c2=O)c1 [Example 7, 3-chloro-5-((6-oxo-1-((6-oxo-1,6-dihydropyridazin-3-yl)methyl)-4-(trifluoromethyl)-1,6-dihydropyrimidin-5-yl)oxy)benzonitrile] | 28 | 8
3 | N#Cc1cc(Cl)cc(Oc2c(C(F)(F)F)ncn(Cc3cc(-c4ccc(C#N)c(F)c4)c(=O)[nH]n3)c2=O)c1 [Example 68, 4-(6-((5-(3-chloro-5-cyanophenoxy)-6-oxo-4-(trifluoromethyl)pyrimidin-1(6H)-yl)methyl)-3-oxo-2,3-dihydropyridazin-4-yl)-2-fluorobenzonitrile] | 25 | 7
4 | N#Cc1cc(Cl)cc(Oc2c(C(F)(F)F)ncn(Cc3cc(-c4ccc(F)cc4)c(=O)[nH]n3)c2=O)c1 [Example 77, 3-chloro-5-((1-((5-(4-fluorophenyl)-6-oxo-1,6-dihydropyridazin-3-yl)methyl)-6-oxo-4-(trifluoromethyl)-1,6-dihydropyrimidin-5-yl)oxy)benzonitrile] | 79 | 4
5 | CC(F)(F)c1cc(Cn2cnc(C(F)(F)F)c(Oc3cc(Cl)cc(C#N)c3)c2=O)n[nH]c1=O [Example 104, 3-chloro-5-((1-((5-(1,1-difluoroethyl)-6-oxo-1,6-dihydropyridazin-3-yl)methyl)-6-oxo-4-(trifluoromethyl)-1,6-dihydropyrimidin-5-yl)oxy)benzonitrile] | 24 | 15
6 | N#Cc1cc(Cl)cc(Oc2c(C(F)(F)F)ncn(Cc3cc(-c4ccccc4)n[nH]c3=O)c2=O)c1 [Example 110, 3-chloro-5-((6-oxo-1-((3-oxo-6-phenyl-2,3-dihydropyridazin-4-yl)methyl)-4-(trifluoromethyl)-1,6-dihydropyrimidin-5-yl)oxy)benzonitrile] | 20 | 3
7 | N#Cc1cc(Cl)cc(Oc2c(C(F)(F)F)ncn(Cc3cc(C4CC4)n[nH]c3=O)c2=O)c1 [Example 117, 3-chloro-5-((1-((6-cyclopropyl-3-oxo-2,3-dihydropyridazin-4-yl)methyl)-6-oxo-4-(trifluoromethyl)-1,6-dihydropyrimidin-5-yl)oxy)benzonitrile] | 30 | 6
8 | N#Cc1cc(Cl)cc(Oc2c(C(F)(F)F)ncn(Cc3cc(C(F)F)n[nH]c3=O)c2=O)c1 [Example 128, 3-chloro-5-((1-((6-(difluoromethyl)-3-oxo-2,3-dihydropyridazin-4-yl)methyl)-6-oxo-4-(trifluoromethyl)-1,6-dihydropyrimidin-5-yl)oxy)benzonitrile] | 81 | 4
9 | CC(F)(F)c1cc(Cn2cnc(C(F)(F)F)c(Oc3cc(Cl)cc(C#N)c3)c2=O)c(=O)[nH]n1 [Example 129, 3-chloro-5-((1-((6-(1,1-difluoroethyl)-3-oxo-2,3-dihydropyridazin-4-yl)methyl)-6-oxo-4-(trifluoromethyl)-1,6-dihydropyrimidin-5-yl)oxy)benzonitrile] | 126 | 6
10 | CC(C)(C)c1ncc(Cn2cnc(C(F)(F)F)c(Oc3cc(Cl)cc(C#N)c3)c2=O)c(=O)[nH]1 [Example 130, 3-((1-((2-(tert-butyl)-6-oxo-1,6-dihydropyrimidin-5-yl)methyl)-6-oxo-4-(trifluoromethyl)-1,6-dihydropyrimidin-5-yl)oxy)-5-chlorobenzonitrile] | 24 | 12
11 | CC(F)(F)c1ncn(Cc2cc(-c3ccc(F)cc3)c(=O)[nH]n2)c(=O)c1Oc1cc(Cl)cc(C#N)c1 [Example 170, 3-chloro-5-((4-(1,1-difluoroethyl)-1-((5-(4-fluorophenyl)-6-oxo-1,6-dihydropyridazin-3-yl)methyl)-6-oxo-1,6-dihydropyrimidin-5-yl)oxy)benzonitrile] |  | 5
12 | CC(F)(F)c1ncn(Cc2cc(-c3ccc(F)cc3)c(=O)[nH]n2)c(=O)c1Oc1cccc(C#N)c1F [Example 171, 3-((4-(1,1-difluoroethyl)-1-((5-(4-fluorophenyl)-6-oxo-1,6-dihydropyridazin-3-yl)methyl)-6-oxo-1,6-dihydropyrimidin-5-yl)oxy)-2-fluorobenzonitrile] |  | 3
13 | N#Cc1cc(Cl)cc(Oc2c(C(F)(F)F)ccn(Cc3cc(C(F)F)n[nH]c3=O)c2=O)c1 [Example 172, 3-chloro-5-((1-((6-(difluoromethyl)-3-oxo-2,3-dihydropyridazin-4-yl)methyl)-2-oxo-4-(trifluoromethyl)-1,2-dihydropyridin-3-yl)oxy)benzonitrile] |  | 5
14 | N#Cc1cc(Cl)cc(Oc2c(C(F)F)ncn(Cc3cc(C(F)F)n[nH]c3=O)c2=O)c1 [Example 173, 3-chloro-5-((4-(difluoromethyl)-1-((6-(difluoromethyl)-3-oxo-2,3-dihydropyridazin-4-yl)methyl)-6-oxo-1,6-dihydropyrimidin-5-yl)oxy)benzonitrile] |  | 6
15 | N#Cc1cccc(Oc2c(C(F)(F)F)ncn(Cc3cc(C(F)F)n[nH]c3=O)c2=O)c1F [Example 174, 3-((1-((6-(difluoromethyl)-3-oxo-2,3-dihydropyridazin-4-yl)methyl)-6-oxo-4-(trifluoromethyl)-1,6-dihydropyrimidin-5-yl)oxy)-2-fluorobenzonitrile] |  | 5
16 | CC(F)(F)c1ncn(Cc2cc(C(F)F)n[nH]c2=O)c(=O)c1Oc1cc(Cl)cc(C#N)c1 [Example 175, 3-chloro-5-((4-(1,1-difluoroethyl)-1-((6-(difluoromethyl)-3-oxo-2,3-dihydropyridazin-4-yl)methyl)-6-oxo-1,6-dihydropyrimidin-5-yl)oxy)benzonitrile] |  | 3
17 | Cc1ncn(Cc2cc(C(F)F)n[nH]c2=O)c(=O)c1Oc1cc(Cl)cc(C#N)c1 [Example 176, 3-chloro-5-((1-((6-(difluoromethyl)-3-oxo-2,3-dihydropyridazin-4-yl)methyl)-4-methyl-6-oxo-1,6-dihydropyrimidin-5-yl)oxy)benzonitrile] |  | 6
18 | CC(F)(F)c1ncn(Cc2cc(C(F)F)n[nH]c2=O)c(=O)c1Oc1cccc(C#N)c1F [Example 177, 3-((4-(1,1-difluoroethyl)-1-((6-(difluoromethyl)-3-oxo-2,3-dihydropyridazin-4-yl)methyl)-6-oxo-1,6-dihydropyrimidin-5-yl)oxy)-2-fluorobenzonitrile] |  | 17
19 | CC(F)(F)c1cc(Cn2cnc(C(F)(F)F)c(Oc3cccc(C#N)c3F)c2=O)c(=O)[nH]n1 [Example 178, 3-((1-((6-(1,1-difluoroethyl)-3-oxo-2,3-dihydropyridazin-4-yl)methyl)-6-oxo-4-(trifluoromethyl)-1,6-dihydropyrimidin-5-yl)oxy)-2-fluorobenzonitrile] |  | 9
20 | CC(F)(F)c1cc(Cn2cnc(C(F)F)c(Oc3cc(Cl)cc(C#N)c3)c2=O)c(=O)[nH]n1 [Example 179, 3-chloro-5-((1-((6-(1,1-difluoroethyl)-3-oxo-2,3-dihydropyridazin-4-yl)methyl)-4-(difluoromethyl)-6-oxo-1,6-dihydropyrimidin-5-yl)oxy)benzonitrile] |  | 8
21 | CC(F)(F)c1cc(Cn2cnc(C(C)(F)F)c(Oc3cc(Cl)cc(C#N)c3)c2=O)c(=O)[nH]n1 [Example 180, 3-chloro-5-((4-(1,1-difluoroethyl)-1-((6-(1,1-difluoroethyl)-3-oxo-2,3-dihydropyridazin-4-yl)methyl)-6-oxo-1,6-dihydropyrimidin-5-yl)oxy)benzonitrile] |  | 5
22 | Cc1ncn(Cc2cc(C(C)(F)F)n[nH]c2=O)c(=O)c1Oc1cc(Cl)cc(C#N)c1 [Example 181, 3-chloro-5-((1-((6-(1,1-difluoroethyl)-3-oxo-2,3-dihydropyridazin-4-yl)methyl)-4-methyl-6-oxo-1,6-dihydropyrimidin-5-yl)oxy)benzonitrile] |  | 12
23 | CC(F)(F)c1cc(Cn2cnc(C(C)(F)F)c(Oc3cccc(C#N)c3F)c2=O)c(=O)[nH]n1 [Example 182, 3-((4-(1,1-difluoroethyl)-1-((6-(1,1-difluoroethyl)-3-oxo-2,3-dihydropyridazin-4-yl)methyl)-6-oxo-1,6-dihydropyrimidin-5-yl)oxy)-2-fluorobenzonitrile] |  | 9
